Measured values: PMC10758829 (Heliyon, 2023)

Experiments:
[1] = test system: NCC(=O)N1CCC[C@H]1C(=O)Nc1ccc([N+](=O)[O-])cc1; assay: purified protein; type: biochemical, Homo sapiens
[2] = molecular target: dipeptidyl peptidase IV (DPP-IV) (Homo sapiens, UniProt P27487); assay: Gly-Pro-pNA chromogenic assay with recombinant enzyme; type: biochemical
Chain of dipeptidyl peptidase IV (DPP-IV) (P27487 39-766): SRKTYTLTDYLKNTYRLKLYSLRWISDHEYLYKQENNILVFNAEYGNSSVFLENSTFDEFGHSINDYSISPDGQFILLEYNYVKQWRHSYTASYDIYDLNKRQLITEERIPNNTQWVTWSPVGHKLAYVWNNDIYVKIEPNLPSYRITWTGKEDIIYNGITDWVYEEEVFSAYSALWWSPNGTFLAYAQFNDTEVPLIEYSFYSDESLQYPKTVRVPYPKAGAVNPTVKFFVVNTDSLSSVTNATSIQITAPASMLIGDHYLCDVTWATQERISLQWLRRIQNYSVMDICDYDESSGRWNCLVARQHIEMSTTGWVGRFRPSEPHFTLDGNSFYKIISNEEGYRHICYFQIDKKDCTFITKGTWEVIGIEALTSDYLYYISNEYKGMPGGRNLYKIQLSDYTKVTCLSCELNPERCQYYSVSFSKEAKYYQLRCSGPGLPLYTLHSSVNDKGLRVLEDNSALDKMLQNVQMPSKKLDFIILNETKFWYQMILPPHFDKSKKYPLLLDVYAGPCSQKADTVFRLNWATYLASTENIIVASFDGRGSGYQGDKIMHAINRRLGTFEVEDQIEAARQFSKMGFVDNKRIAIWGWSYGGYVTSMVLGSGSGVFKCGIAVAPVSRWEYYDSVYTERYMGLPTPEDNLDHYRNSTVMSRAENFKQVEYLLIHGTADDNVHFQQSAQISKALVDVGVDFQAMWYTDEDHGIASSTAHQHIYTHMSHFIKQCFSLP

Compound | Vmax [1] [µM/min] | IC50 [2] [µM]
dipeptidyl peptidase IV (DPP-IV) (Homo sapiens) | 1200 | 
C=C(C)[C@@H]1CCC(C)=C[C@H]1c1c(O)cc(CCCCC)cc1O [CBD, cannabidiol] |  | 21.9
CCCCCc1cc(O)c2c(c1)OC(C)(C)c1ccc(C)cc1-2 [CBN, cannabinol] |  | 12.9
CCCCCc1cc(O)c(C/C=C(\C)CCC=C(C)C)c(O)c1 [CBG, cannabigerol] |  | 20.2
